Laboratory results published in patent US20260115185A1, “QUINOLINE DERIVATIVES WHICH ACT AS KAPPA-OPIOID RECEPTOR ANTAGONISTS” (The Scripps Research Institute, priority 2023, published 2026).
pIC50: −log10 of the molar value.

Experiments:
[1] = target: T1, kappa opioid receptor (KOR) (Homo sapiens, UniProt P41145); test: OPRKappa 1 Tango B-Arrestin Assay, antagonist mode (Tango OPRK1-bla U2OS cells, U50488 EC80 challenge); format: cell-based; settings: for Selectivity (MOR/KOR): Kappa selectivity, MOR IC50 / KOR IC50; for pIC50: antagonist mode, Tango OPRK1-bla U2OS cells, 6 nM U50488 challenge
T1 construct: host or cells: U2OS (Tango OPRK1-bla U2OS)
Method in brief: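 Tango OPRK1-bla U2OS cells, β-arrestin recruitment read as β-lactamase FRET (CCF4-AM, 460/590 nm emission). Compounds, 10-point 1:3 series from nominal 10 µM in quadruplicate, preincubated 30 min at 37 °C, then challenged with U50488 at 6 nM final (EC80) for 4 h; percent inhibition from median ratio.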

[2] = target: T2, mu opioid receptor (MOR) (Homo sapiens, UniProt P35372); test: OPRMu1 Discover X β-arrestin Assay, antagonist mode (U2OS cells, DAMGO EC80 challenge); format: cell-based
T2 construct: host or cells: U2OS (Discover X OPRMu1-U2OS, PathHunter)
Method in brief: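 PathHunter U2OS cells with β-gal fragment-complementation readout for β-arrestin recruitment to OPRMu1. Cells were preincubated with compound (10-point, 1:3 series from nominal 10 micromolar) for 30 min at 37 °C, then challenged with 303 nM DAMGO (EC80) for 3 h. Luminescence gave percent inhibition.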

T1 sequence (P41145 whole entry): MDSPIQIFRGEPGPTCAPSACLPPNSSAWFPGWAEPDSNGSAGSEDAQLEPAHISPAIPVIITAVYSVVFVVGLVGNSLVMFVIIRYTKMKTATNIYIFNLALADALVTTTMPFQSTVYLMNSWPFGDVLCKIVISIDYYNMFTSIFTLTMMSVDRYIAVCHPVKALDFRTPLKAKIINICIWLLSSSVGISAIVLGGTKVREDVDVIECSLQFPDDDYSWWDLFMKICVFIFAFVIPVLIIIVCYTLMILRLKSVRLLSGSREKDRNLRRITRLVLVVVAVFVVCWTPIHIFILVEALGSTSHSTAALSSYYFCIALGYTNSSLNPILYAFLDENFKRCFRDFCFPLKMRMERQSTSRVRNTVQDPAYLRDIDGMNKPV
T2 sequence (P35372 whole entry): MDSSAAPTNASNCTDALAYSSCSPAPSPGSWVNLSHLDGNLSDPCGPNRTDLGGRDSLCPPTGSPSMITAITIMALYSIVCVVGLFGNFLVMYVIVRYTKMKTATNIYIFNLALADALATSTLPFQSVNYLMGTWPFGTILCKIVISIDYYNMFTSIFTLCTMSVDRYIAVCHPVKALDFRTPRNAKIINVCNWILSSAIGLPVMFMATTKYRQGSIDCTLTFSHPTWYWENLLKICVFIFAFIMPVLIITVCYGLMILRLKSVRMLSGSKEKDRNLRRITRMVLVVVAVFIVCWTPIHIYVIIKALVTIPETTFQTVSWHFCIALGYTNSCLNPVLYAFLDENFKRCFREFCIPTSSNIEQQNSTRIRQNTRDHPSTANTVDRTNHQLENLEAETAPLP

CCc1cc(-c2ccnn2C)c2nc(N3CC[C@H](NC4CCOCC4)[C@H](F)C3)c(-c3ccn(C)n3)c(C)c2c1 [Compound 1, (3R,4S)-1-(6-ethyl-4-methyl-3-(1-methyl-1H-pyrazol-3-yl)-8-(1-methyl-1H-pyrazol-5-yl)quinolin-2-yl)-3-fluoro-N-(tetrahydro-2H-pyran-4-yl)piperidin-4-amine]
Selectivity (MOR/KOR) [1]: +++ (between 100- to 1000-fold selective)
pIC50 [1]: 8.00 to 9.00
pIC50 [2]: < 6.00

CCc1cc(F)c2nc(N3CCN(C(=O)[C@H]4CC(F)(F)CCN4)C[C@H]3C)c(-c3nc(C)no3)c(C)c2c1 [Compound 200]
Selectivity (MOR/KOR) [1]: +++ (between 100- to 1000-fold selective)
pIC50 [1]: 8.00 to 9.00
pIC50 [2]: < 6.00

CCc1cc(F)c2nc(N3CCN(C[C@@H]4CCOC4)C[C@H]3C)c(-c3nc(C)no3)c(C)c2c1 [Compound 203]
Selectivity (MOR/KOR) [1]: +++ (between 100- to 1000-fold selective)
pIC50 [1]: 7.00 to 8.00
pIC50 [2]: < 6.00

CCc1cc(F)c2nc(N3CC[C@@H]4[C@@H](CCN4C[C@@H]4CCCOC4)C3)c(-c3ccn(C)n3)c(C)c2c1 [Compound 128]
Selectivity (MOR/KOR) [1]: ++ (between 10- and 100-fold selectivity)
pIC50 [1]: ≤ 7.00
pIC50 [2]: < 6.00

CCc1cc(F)c2nc(N3CCN(CC4CCOCC4)C[C@H]3C)c(-c3nc(C)no3)c(C)c2c1 [Compound 49, (R)-5-(6-ethyl-8-fluoro-4-methyl-2-(2-methyl-4-((tetrahydro-2H-pyran-4-yl)methyl)piperazin-1-yl)quinolin-3-yl)-3-methyl-1,2,4-oxadiazole]
Selectivity (MOR/KOR) [1]: +++ (between 100- to 1000-fold selective)
pIC50 [1]: 7.00 to 8.00
pIC50 [2]: < 6.00

CCc1cc(F)c2nc(N3CC[C@H](N[C@@H]4CCCOC4)C[C@H]3C)c(-c3cc(C)no3)c(C)c2c1 [Compound 142]
Selectivity (MOR/KOR) [1]: +++ (between 100- to 1000-fold selective)
pIC50 [1]: > 9.00
pIC50 [2]: 7.00 to 8.00

CCc1cc(F)c2nc(N3CC[C@@H]4[C@@H](CCN4C[C@@H]4CCOC4)C3)c(-c3ccn(C)n3)c(C)c2c1 (stereo in doubt) [Compound 127]
Selectivity (MOR/KOR) [1]: +++ (between 100- to 1000-fold selective)
pIC50 [1]: ≤ 7.00
pIC50 [2]: < 6.00

CCc1cc(F)c2nc(N3CCC(N[C@H]4CCOC[C@@H]4O)CC3)c(-c3cc(C)n(C)n3)c(C)c2c1 [Compound 16, (3R,4S)-4-((1-(3-(1,5-dimethyl-1H-pyrazol-3-yl)-6-ethyl-8-fluoro-4-methylquinolin-2-yl)piperidin-4-yl)amino)tetrahydro-2H-pyran-3-ol]
Selectivity (MOR/KOR) [1]: ++ (between 10- and 100-fold selectivity)
pIC50 [1]: 8.00 to 9.00
pIC50 [2]: 6.00 to 7.00

CCc1cc(F)c2nc(N3CCC(N[C@H]4CCOC[C@H]4F)CC3)c(-c3cc(C)n(C)n3)c(C)c2c1 [Compound 5, 1-(3-(1,5-dimethyl-1H-pyrazol-3-yl)-6-ethyl-8-fluoro-4-methylquinolin-2-yl)-N-((3S,4S)-3-fluorotetrahydro-2H-pyran-4-yl)piperidin-4-amine]
Selectivity (MOR/KOR) [1]: +++ (between 100- to 1000-fold selective)
pIC50 [1]: 8.00 to 9.00
pIC50 [2]: 6.00 to 7.00

CCc1cc(F)c2nc(N3CC[C@H](N[C@@H]4CCOC4)[C@@H](F)C3)c(-c3ccn(C)n3)c(C)c2c1 [Compound 195, (3S,4S)-1-(6-ethyl-8-fluoro-4-methyl-3-(1-methyl-1H-pyrazol-3-yl)quinolin-2-yl)-3-fluoro-N—((R)-tetrahydrofuran-3-yl)piperidin-4-amine]
Selectivity (MOR/KOR) [1]: ++++ (more than 1000-fold selectivity over MOR)
pIC50 [1]: 8.00 to 9.00
pIC50 [2]: < 6.00

CCc1cc(F)c2nc(N3CCN(C(=O)C(C)(C)N4CCCC4)C[C@H]3C)c(-c3ccn(C)n3)c(C)c2c1 [Compound 169]
Selectivity (MOR/KOR) [1]: ++ (between 10- and 100-fold selectivity)
pIC50 [1]: 8.00 to 9.00
pIC50 [2]: < 6.00

CCc1cc(F)c2nc(N3CC[C@H]4[C@H](CCN4[C@@H]4CCCOC4)C3)c(-c3ccn(C)n3)c(C)c2c1 [Compound 126]
Selectivity (MOR/KOR) [1]: ++ (between 10- and 100-fold selectivity)
pIC50 [1]: 7.00 to 8.00
pIC50 [2]: < 6.00

CCc1cc(F)c2nc(N3CCN(C(=O)[C@H]4COCCN4C)C[C@H]3C)c(-c3nc(C)no3)c(C)c2c1 [Compound 184]
Selectivity (MOR/KOR) [1]: +++ (between 100- to 1000-fold selective)
pIC50 [1]: 7.00 to 8.00
pIC50 [2]: < 6.00

CCc1cc(F)c2nc(N3CC[C@@H](N[C@@H]4CCOC4)[C@@H](F)C3)c(-c3ccn(C)n3)c(C)c2c1 [Compound 192, (3S,4R)-1-(6-ethyl-8-fluoro-4-methyl-3-(1-methyl-1H-pyrazol-3-yl)quinolin-2-yl)-3-fluoro-N—((R)-tetrahydrofuran-3-yl)piperidin-4-amine]
Selectivity (MOR/KOR) [1]: ++++ (more than 1000-fold selectivity over MOR)
pIC50 [1]: > 9.00
pIC50 [2]: < 6.00

CCc1cc(F)c2nc(N3CCN(CC4CCOCC4)C[C@H]3C)c(-c3cc(C)no3)c(C)c2c1 [Compound 63, (R)-5-(6-ethyl-8-fluoro-4-methyl-2-(2-methyl-4-((tetrahydro-2H-pyran-4-yl)methyl)piperazin-1-yl)quinolin-3-yl)-3-methylisoxazole]
Selectivity (MOR/KOR) [1]: +++ (between 100- to 1000-fold selective)
pIC50 [1]: 7.00 to 8.00
pIC50 [2]: < 6.00

CCc1cc(F)c2nc(N3CC[C@H](NC4CCOCC4)[C@H](F)C3)c(-c3cc(C(F)(F)F)n(C)n3)c(C)c2c1 (stereo in doubt) [Compound 83]
Selectivity (MOR/KOR) [1]: +++ (between 100- to 1000-fold selective)
pIC50 [1]: ≤ 7.00
pIC50 [2]: < 6.00

CCc1cc(F)c2nc(N3CCN(C(=O)CN4CC[C@@H](O)C4)C[C@H]3C)c(-c3nc(C)no3)c(C)c2c1 [Compound 145]
Selectivity (MOR/KOR) [1]: ++++ (more than 1000-fold selectivity over MOR)
pIC50 [1]: 8.00 to 9.00
pIC50 [2]: < 6.00

CCc1cc(F)c2nc(N3CC[C@@H](N[C@@H]4CCCOC4)C[C@H]3C)c(-c3cc(C)no3)c(C)c2c1 [Compound 144]
Selectivity (MOR/KOR) [1]: +++ (between 100- to 1000-fold selective)
pIC50 [1]: > 9.00
pIC50 [2]: 6.00 to 7.00

CCc1cc(-c2ccnn2C)c2nc(N3CCC(N[C@H]4CCOC[C@H]4F)CC3)c(-c3ccn(C)n3)c(C)c2c1 [Compound 21, 1-(6-ethyl-4-methyl-3-(1-methyl-1H-pyrazol-3-yl)-8-(1-methyl-1H-pyrazol-5-yl)quinolin-2-yl)-N-((3S,4S)-3-fluorotetrahydro-2H-pyran-4-yl)piperidin-4-amine]
Selectivity (MOR/KOR) [1]: ++ (between 10- and 100-fold selectivity)
pIC50 [1]: 8.00 to 9.00
pIC50 [2]: 7.00 to 8.00

CCc1cc(F)c2nc(N3CC[C@H]4[C@H](CCN4[C@@H]4CCOC4)C3)c(-c3ccn(C)n3)c(C)c2c1 [Compound 125]
Selectivity (MOR/KOR) [1]: ++++ (more than 1000-fold selectivity over MOR)
pIC50 [1]: 8.00 to 9.00
pIC50 [2]: < 6.00

CCc1cc(F)c2nc(N3CCC(N[C@@H]4CCOC4)CC3)c(-c3cc(C)n(C)n3)c(C)c2c1 [Compound 66]
Selectivity (MOR/KOR) [1]: +++ (between 100- to 1000-fold selective)
pIC50 [1]: 8.00 to 9.00
pIC50 [2]: 6.00 to 7.00

CCc1cc(F)c2nc(N3CCN(C4CCOCC4)C[C@@H]3C)c(-c3nc(C)no3)c(C)c2c1 (single isomer, unassigned) [Compound 28]
Selectivity (MOR/KOR) [1]: ++++ (more than 1000-fold selectivity over MOR)
pIC50 [1]: 8.00 to 9.00
pIC50 [2]: < 6.00

CCc1cc(F)c2nc(N3CC[C@H](N[C@@H]4CCOC4)[C@@H](C)C3)c(-c3ccn(C)n3)c(C)c2c1 [Compound 108]
Selectivity (MOR/KOR) [1]: +++ (between 100- to 1000-fold selective)
pIC50 [1]: 8.00 to 9.00
pIC50 [2]: 6.00 to 7.00

CCN/C(=N/C#N)N1CCN(c2nc3c(F)cc(CC)cc3c(C)c2-c2ccn(C)n2)[C@H](C)C1 [Compound 10, (R,E)-N′-cyano-N-ethyl-4-(6-ethyl-8-fluoro-4-methyl-3-(1-methyl-1H-pyrazol-3-yl)quinolin-2-yl)-3-methylpiperazine-1-carboximidamide]
Selectivity (MOR/KOR) [1]: ++ (between 10- and 100-fold selectivity)
pIC50 [1]: ≤ 7.00
pIC50 [2]: < 6.00

CCc1cc(F)c2nc(N3CCC(N[C@@H]4CCOC[C@@H]4F)CC3)c(-c3cc(C)n(C)n3)c(C)c2c1 [Compound 14, 1-(3-(1,5-dimethyl-1H-pyrazol-3-yl)-6-ethyl-8-fluoro-4-methylquinolin-2-yl)-N-((3R,4R)-3-fluorotetrahydro-2H-pyran-4-yl)piperidin-4-amine]
Selectivity (MOR/KOR) [1]: +++ (between 100- to 1000-fold selective)
pIC50 [1]: 8.00 to 9.00
pIC50 [2]: 6.00 to 7.00

CCc1cc(F)c2nc(N3CCC(N[C@H]4COC[C@H]4F)CC3)c(-c3ccn(C)n3)c(C)c2c1 [Compound 72, 1-(6-ethyl-8-fluoro-4-methyl-3-(1-methyl-1H-pyrazol-3-yl)quinolin-2-yl)-N-((3S,4S)-4-fluorotetrahydrofuran-3-yl)piperidin-4-amine]
Selectivity (MOR/KOR) [1]: ++ (between 10- and 100-fold selectivity)
pIC50 [1]: 7.00 to 8.00
pIC50 [2]: < 6.00

CCc1cc(-c2cc(C)nn2C)c2nc(N3CC[C@H](NC4CCOCC4)[C@H](F)C3)c(-c3ccn(C)n3)c(C)c2c1 [Compound 96]
Selectivity (MOR/KOR) [1]: +++ (between 100- to 1000-fold selective)
pIC50 [1]: 8.00 to 9.00
pIC50 [2]: < 6.00
